The source of these data is patent US11739100B2, “2,3-dihydro-1h-imidazo{1,2-a}pyrimidin-5-one and this 1,2,3,4-tetrahydropyrimido{1,2-a}pyrimidin-6-one derivatives comprising a substituted morpholine, preparation thereof and pharmaceutical use thereof” (SANOFI, priority 2012, dated 2023).

Structures are written as SMILES.

This assay concerns the target T1, recombinant Vps34 (Homo sapiens, UniProt Q8NEB9).
T1 construct: purchased Invitrogen PV5126
As to the kind of experiment: Phosphorylation of phosphatidylinositol (PI) by Vps34 in vitro, ADP detected by TR-FRET (HTRF Transcreener ADP). It counts as biochemical. Conditions: 10 μM ATP, 55 μg/ml PI, approximately 3 nM Vps34, 1 hour at ambient temperature; absolute IC50, mean of two independent experiments; read-out: IC50 activity range.

T1 sequence (Q8NEB9 whole entry): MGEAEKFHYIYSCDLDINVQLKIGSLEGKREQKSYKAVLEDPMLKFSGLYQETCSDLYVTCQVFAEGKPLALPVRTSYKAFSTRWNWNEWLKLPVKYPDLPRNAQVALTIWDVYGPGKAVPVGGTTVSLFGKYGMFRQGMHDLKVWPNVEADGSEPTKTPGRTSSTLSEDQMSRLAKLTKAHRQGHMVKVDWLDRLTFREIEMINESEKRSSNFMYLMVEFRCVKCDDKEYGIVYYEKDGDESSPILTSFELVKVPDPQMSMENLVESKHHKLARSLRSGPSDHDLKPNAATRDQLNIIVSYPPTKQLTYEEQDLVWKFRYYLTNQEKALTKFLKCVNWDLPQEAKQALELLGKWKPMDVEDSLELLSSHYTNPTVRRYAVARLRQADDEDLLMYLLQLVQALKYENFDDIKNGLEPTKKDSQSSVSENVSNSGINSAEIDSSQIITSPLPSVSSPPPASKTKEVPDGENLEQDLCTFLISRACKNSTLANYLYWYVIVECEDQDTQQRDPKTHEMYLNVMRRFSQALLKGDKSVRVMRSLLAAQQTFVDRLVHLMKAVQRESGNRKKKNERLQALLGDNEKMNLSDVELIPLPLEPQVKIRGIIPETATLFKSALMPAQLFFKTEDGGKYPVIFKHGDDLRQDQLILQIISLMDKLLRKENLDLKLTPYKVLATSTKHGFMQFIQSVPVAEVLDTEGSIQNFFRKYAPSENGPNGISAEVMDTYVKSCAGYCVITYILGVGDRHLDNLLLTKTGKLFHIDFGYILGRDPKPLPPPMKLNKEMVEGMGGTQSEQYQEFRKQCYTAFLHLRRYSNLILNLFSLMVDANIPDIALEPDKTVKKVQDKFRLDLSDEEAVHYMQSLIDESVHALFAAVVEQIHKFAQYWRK

Consider `C[C@@H]1COCCN1c1cc(=O)n2c(n1)N(CC(=O)C1(C)CCCC1)[C@H](C(F)(F)F)CC2` [Example 253, (S)-9-[2-(1-Methyl-cyclopentyl)-2-oxo-ethyl]-2-((R)-3-methyl-morpholin-4-yl)-8-trifluoromethyl-6,7,8,9-tetrahydro-pyrimido[1,2-a]-pyrimidin-4-one], for which the IC50 is < 10 nM.

For the compound `CC(C)OC(=O)CN1c2nc(N3CCOC[C@H]3C)cc(=O)n2CC[C@H]1C(F)(F)F` [Example 254, [(S)-8-((R)-3-Methyl-morpholin-4-yl)-6-oxo-2-trifluoromethyl-3,4-dihydro-2H,6H-pyrimido[1,2-a]-pyrimidin-1-yl]acetic acid isopropyl ester], the IC50 is < 10 nM. As to `C[C@@H]1COCCN1c1cc(=O)n2c(n1)N(Cc1ccnc(F)c1)[C@H](C(F)(F)F)CC2` [Example 257, (S)-9-(2-Fluoropyridin-4-ylmethyl)-2-((R)-3-methylmorpholin-4-yl)-8-trifluoromethyl-6,7,8,9-tetrahydro-pyrimido[1,2-a]-pyrimidin-4-one], the half-inhibitory concentration (IC50) is < 10 nM. On to `C[C@@H]1COCCN1c1cc(=O)n2c(n1)N(CC(=O)C1CCCCC1)[C@H](C(F)(F)F)CC2` [Example 258, (S)-9-(2-Cyclohexyl-2-oxoethyl)-2-((R)-3-methylmorpholin-4-yl)-8-trifluoromethyl-6,7,8,9-tetrahydro-pyrimido[1,2-a]-pyrimidin-4-one], for which the half-inhibitory concentration (IC50) is < 10 nM. In the case of `C[C@@H]1COCCN1c1cc(=O)n2c(n1)N(Cc1ccnnc1)[C@H](C(F)(F)F)CC2` [Example 259, (S)-2-((R)-3-methyl-morpholin-4-yl)-9-pyridazin-4-ylmethyl-8-trifluoromethyl-6,7,8,9-tetrahydro-pyrimido[1,2-a]-pyrimidin-4-one], the half-inhibitory concentration (IC50) is < 10 nM.

Consider `C[C@@H]1COCCN1c1cc(=O)n2c(n1)N(CC(=O)OC(C)(C)C)[C@H](C(F)(F)F)CC2` [Example 260, [(S)-8-((R)-3-Methyl-morpholin-4-yl)-6-oxo-2-trifluoromethyl-3,4-dihydro-2H,6H-pyrimido[1,2-a]-pyrimidin-1-yl]acetic acid tert-butyl ester], for which the 50% inhibitory concentration (IC50) was < 10 nM. Take `C[C@@H]1COCCN1c1cc(=O)n2c(n1)N(CC(=O)C1CCCN1C(=O)OC(C)(C)C)[C@H](C(F)(F)F)CC2` (stereo partly drawn) [Example 261, 2-{2-[(S)-8-((R)-3-Methylmorpholin-4-yl)-6-oxo-2-trifluoromethyl-3,4-dihydro-2H,6H-pyrimido[1,2-a]-pyrimidin-1-yl]acetyl}-pyrrolidine-1-carboxylic acid tert-butyl ester]: the concentration for half-maximal inhibition (IC50) lay within 10 to 100 nM. Next, `COC(=O)CN1c2nc(N3CCOC[C@H]3C)cc(=O)n2CC[C@H]1C(F)(F)F` [Example 262, [(S)-8-((R)-3-Methyl-morpholin-4-yl)-6-oxo-2-trifluoromethyl-3,4-dihydro-2H,6H-pyrimido[1,2-a]-pyrimidin-1-yl]acetic acid methyl ester]: < 10 nM; `C[C@@H]1COCCN1c1cc(=O)n2c(n1)N(CC(N)=O)[C@H](C(F)(F)F)CC2` [Example 263, 2-[(S)-8-((R)-3-Methyl-morpholin-4-yl)-6-oxo-2-trifluoromethyl-3,4-dihydro-2H,6H-pyrimido[1,2-a]-pyrimidin-1-yl]-acetamide]: > 100 nM; `C[C@@H]1COCCN1c1cc(=O)n2c(n1)N(Cc1nnc[nH]1)[C@H](C(F)(F)F)CC2` [Example 264, (S)-2-((R)-3-Methyl-morpholin-4-yl)-9-(4H-[1,2,4]triazol-3-yl-methyl)-8-trifluoromethyl-6,7,8,9-tetrahydro-pyrimido[1,2-a]-pyrimidin-4-one]: < 10 nM. As for `C[C@@H]1COCCN1c1cc(=O)n2c(n1)N(CC(=O)C1CCNCC1)[C@H](C(F)(F)F)CC2` [Example 265, (S)-2-((R)-3-Methyl-morpholin-4-yl)-9-(2-oxo-2-piperidin-4-yl-ethyl)-8-trifluoromethyl-6,7,8,9-tetrahydro-pyrimido[1,2-a]-pyrimidin-4-one], the half-inhibitory concentration (IC50) was 10 to 100 nM. Turning to `CC(C)=CCN1c2nc(N3CCOC[C@H]3C)cc(=O)n2CC[C@H]1C(F)(F)F` [Example 266, (S)-9-(3-Methyl-but-2-enyl)-2-((R)-3-methyl-morpholin-4-yl)-8-trifluoromethyl-6,7,8,9-tetrahydro-pyrimido[1,2-a]-pyrimidin-4-one], the IC50 was < 10 nM. For `C[C@@H]1COCCN1c1cc(=O)n2c(n1)N(CCC(C)(C)F)[C@H](C(F)(F)F)CC2` [Example 267, (S)-9-(3-Fluoro-3-methylbutyl)-2-((R)-3-methylmorpholin-4-yl)-8-trifluoromethyl-6,7,8,9-tetrahydro-pyrimido[1,2-a]-pyrimidin-4-one], the concentration for half-maximal inhibition (IC50) is < 10 nM. Consider `Cc1nocc1C(=O)CN1c2nc(N3CCOC[C@H]3C)cc(=O)n2CC[C@H]1C(F)(F)F` [Example 268, (S)-9-[2-(3-Methyl-isoxazol-4-yl)-2-oxo-ethyl]-2-((R)-3-methyl-morpholin-4-yl)-8-trifluoromethyl-6,7,8,9-tetrahydro-pyrimido[1,2-a]-pyrimidin-4-one], for which the concentration for half-maximal inhibition (IC50) is > 100 nM. Regarding `C[C@@H]1COCCN1c1cc(=O)n2c(n1)N(CC(=O)C1CCOC1)[C@H](C(F)(F)F)CC2` (stereo partly drawn) [Example 269, (S)-2-((R)-3-Methyl-morpholin-4-yl)-9-[2-oxo-2-(tetrahydro-furan-3-yl)ethyl]-8-trifluoromethyl-6,7,8,9-tetrahydro-pyrimido[1,2-a]-pyrimidin-4-one], the IC50 was in the range of 10 to 100 nM.

For the compound `Cc1nc(CN2c3nc(N4CC5CCC(C4)O5)cc(=O)n3CC[C@H]2C(F)(F)F)no1` [Example 270, (S)-9-(5-Methyl-[1,2,4]oxadiazol-3-yl-methyl)-2-(8-oxa-3-azabicyclo[3.2.1]oct-3-yl)-8-trifluoromethyl-6,7,8,9-tetrahydro-pyrimido[1,2-a]-pyrimidin-4-one], the 50% inhibitory concentration (IC50) lay within 10 to 100 nM. Consider `O=C(CN1c2nc(N3CC4CCC(C3)O4)cc(=O)n2CC[C@H]1C(F)(F)F)C1CC1` [Example 271, (S)-9-(2-Cyclopropyl-2-oxoethyl)-2-(8-oxa-3-azabicyclo[3.2.1]oct-3-yl)-8-trifluoromethyl-6,7,8,9-tetrahydro-pyrimido[1,2-a]-pyrimidin-4-one], for which the IC50 fell in the range of 10 to 100 nM. Turning to `CC(C)C(=O)CN1c2nc(N3CC4CCC(C3)O4)cc(=O)n2CC[C@H]1C(F)(F)F` [Example 272, (S)-9-(3-Methyl-2-oxo-butyl)-2-(8-oxa-3-aza-bicyclo[3.2.1]oct-3-yl)-8-trifluoromethyl-6,7,8,9-tetrahydro-pyrimido[1,2-a]-pyrimidin-4-one], the 50% inhibitory concentration (IC50) was > 100 nM. Regarding `O=C(CN1c2nc(N3CC4CCC(C3)O4)c(F)c(=O)n2CC[C@H]1C(F)(F)F)C1CC1` [Example 273, (S)-9-(2-Cyclopropyl-2-oxoethyl)-3-fluoro-2-(8-oxa-3-aza-bicyclo[3.2.1]oct-3-yl)-8-trifluoromethyl-6,7,8,9-tetrahydro-pyrimido[1,2-a]-pyrimidin-4-one], the IC50 was 10 to 100 nM. Next, `CC(C)C(=O)CN1c2nc(N3CC4CCC(C3)O4)c(F)c(=O)n2CC[C@H]1C(F)(F)F` [Example 274, (S)-3-Fluoro-9-(3-methyl-2-oxobutyl)-2-(8-oxa-3-aza-bicyclo[3.2.1]oct-3-yl)-8-trifluoromethyl-6,7,8,9-tetrahydro-pyrimido[1,2-a]-pyrimidin-4-one]: 10 to 100 nM; `Cc1nc(CN2c3nc(N4CC5CCC(C4)O5)c(F)c(=O)n3CC[C@H]2C(F)(F)F)no1` [Example 275, (S)-3-Fluoro-9-(5-methyl-[1,2,4]oxadiazol-3-yl-methyl)-2-(8-oxa-3-azabicyclo[3.2.1]oct-3-yl)-8-trifluoromethyl-6,7,8,9-tetrahydro-pyrimido[1,2-a]-pyrimidin-4-one]: 10 to 100 nM. With `CC(C)CC(=O)CN1c2nc(N3CCOC[C@H]3C)cc(=O)n2CC[C@H]1C(F)(F)F` [Example 276, (S)-2-((R)-3-Methyl-morpholin-4-yl)-9-(4-methyl-2-oxo-pentyl)-8-trifluoromethyl-6,7,8,9-tetrahydro-pyrimido[1,2-a]-pyrimidin-4-one] the figure was < 10 nM; with `CC(C)C(=O)CN1c2nc(N3CCOC[C@@H]3C)c(F)c(=O)n2CC[C@H]1C(F)(F)F` [Example 278, (S)-3-Fluoro-2-((S)-3-methylmorpholin-4-yl)-9-(3-methyl-2-oxo-butyl)-8-trifluoromethyl-6,7,8,9-tetrahydro-pyrimido[1,2-a]-pyrimidin-4-one], > 100 nM. `CC(C)CCC(=O)CN1c2nc(N3CCOC[C@H]3C)c(F)c(=O)n2CC[C@H]1C(F)(F)F` [Example 279, (S)-3-Fluoro-2-((R)-3-methylmorpholin-4-yl)-9-(5-methyl-2-oxo-hexyl)-8-trifluoromethyl-6,7,8,9-tetrahydro-pyrimido[1,2-a]-pyrimidin-4-one]: the IC50 is < 10 nM.

As to `CC(C)CC(=O)CN1c2nc(N3CCOC[C@H]3C)c(F)c(=O)n2CC[C@H]1C(F)(F)F` [Example 280, (S)-3-Fluoro-2-((R)-3-methylmorpholin-4-yl)-9-(4-methyl-2-oxo-pentyl)-8-trifluoromethyl-6,7,8,9-tetrahydro-pyrimido[1,2-a]-pyrimidin-4-one], the IC50 was < 10 nM.

For the compound `CCC(CC)C(=O)CN1c2nc(N3CCOC[C@H]3C)cc(=O)n2CC[C@H]1C(F)(F)F` [Example 281, (S)-9-(3-Ethyl-2-oxo-pentyl)-2-((R)-3-methylmorpholin-4-yl)-8-trifluoromethyl-6,7,8,9-tetrahydro-pyrimido[1,2-a]-pyrimidin-4-one], the IC50 is < 10 nM. For the compound `CCC(CC)C(=O)CN1c2nc(N3CCOC[C@H]3C)c(F)c(=O)n2CC[C@H]1C(F)(F)F` [Example 282, (S)-9-(3-Ethyl-2-oxo-pentyl)-3-fluoro-2-((R)-3-methylmorpholin-4-yl)-8-trifluoromethyl-6,7,8,9-tetrahydro-pyrimido[1,2-a]-pyrimidin-4-one], the half-maximal inhibitory concentration (IC50) was < 10 nM. As to `COC(=O)CN1c2nc(N3CCOC[C@H]3C)c(F)c(=O)n2CC[C@H]1C(F)(F)F` [Example 283, [(S)-7-Fluoro-8-((R)-3-methylmorpholin-4-yl)-6-oxo-2-trifluoromethyl-3,4-dihydro-2H,6H-pyrimido[1,2-a]-pyrimidin-1-yl]acetic acid methyl ester], the half-maximal inhibitory concentration (IC50) was < 10 nM.
